Reference: patent US12559474B2, “Triazine derivatives having virus replication inhibitory activity and pharmaceutical composition comprising the same” (priority 2021, dated 2026)
Like-named read-outs stand apart in the source and are kept apart here.

Tests used:
SARS-CoV-2 3CL protease = SARS-CoV-2 3CL protease (Severe acute respiratory syndrome coronavirus 2, UniProt P0DTD1); assay: biochemical; details: 50% SARS-CoV-2 3CL protease inhibitory concentration, read-out: IC50
SARS-CoV-2 = assay: microbe, parasite or virus in culture; format: cell-based; details: Severe acute respiratory syndrome coronavirus 2, VeroE6/TMPRSS2, 72 h, 50% SARS-CoV-2 infected cell death inhibitory concentration, VeroE6/TMPRSS2 cells, 3 days culture

Row | SMILES | IC50 (SARS-CoV-2 3CL protease; given as class symbols) | EC50 (SARS-CoV-2; class symbols) | IC50 (SARS-CoV-2 3CL protease; RapidFire MS) | EC50 (SARS-CoV-2; CellTiter-Glo 2.0)
1 | O=c1nc(Nc2cc3cn(CCO)nc3cc2Cl)n(Cc2cc(F)c(F)c(Cl)c2)c(=O)n1Cc1ncccn1 [II-0294] | < 100 nM | 1000 to 10000 nM | – | –
2 | CNC(=O)Cn1cc2cc(Nc3nc(=O)n(Cc4ccc[nH]c4=O)c(=O)n3Cc3cc(F)c(F)c(F)c3)c(Cl)cc2n1 [Compound I-0368] | < 100 nM | 1000 to 10000 nM | – | –
3 | Cn1nc2cc(Cl)c(Nc3nc(=O)n(Cc4cccnc4O)c(=O)n3Cc3cc(F)c(F)c(F)c3)cc2c1CCCO [Compound I-0364] | < 100 nM | 1000 to 10000 nM | – | –
4 | CCNc1nc2cc(Cl)c(Nc3nc(=O)n(Cc4ccc[nH]c4=O)c(=O)n3Cc3cc(F)c(F)c(F)c3)cc2s1 [Compound I-0468] | < 100 nM | 1000 to 10000 nM | – | –
5 | CNc1cncc(-n2c(=O)nc(Nc3cc4cn(C)nc4cc3Cl)n(Cc3cc(F)c(F)c(Cl)c3)c2=O)c1 [II-0601] | < 100 nM | < 1000 nM | – | –
6 | CCn1cc2cc(Nc3nc(=O)n(-c4cncc(Cl)c4)c(=O)n3Cc3ccc(F)c(C#N)c3)ccc2n1 [II-0566] | – | – | 27 nM | 898 nM
7 | Cc1cncc(-n2c(=O)nc(Nc3cc4c(cc3Cl)OCC4)n(Cc3ccc(F)c(C#N)c3)c2=O)c1 [II-0156] | < 100 nM | < 1000 nM | – | –
8 | Cn1cnc(Cn2c(=O)nc(Nc3cc4sc(N)nc4cc3Cl)n(Cc3cc(F)c(F)cc3F)c2=O)n1 [II-0536] | < 100 nM | 1000 to 10000 nM | – | –
9 | COc1c2cc(Nc3nc(=O)n(Cc4ncn(C)n4)c(=O)n3Cc3cc(F)c(F)cc3F)c(Cl)cc2nn1C [II-0454] | < 100 nM | 1000 to 10000 nM | – | –
10 | CCc1cc(OC)ccc1Nc1nc(=O)n(Cc2ccc[nH]c2=O)c(=O)n1Cc1cc(F)c(F)c(F)c1 [Compound I-0165] | < 100 nM | 1000 to 10000 nM | – | –
11 | Cn1cnc(Cn2c(=O)nc(Nc3cc4cn(Cc5ccccn5)nc4cc3Cl)n(Cc3cc(Cl)c(F)cc3F)c2=O)n1 [II-0005] | < 100 nM | 1000 to 10000 nM | – | –
12 | O=c1[nH]cccc1Cn1c(=O)nc(Nc2cc3ccnn3cc2Cl)n(Cc2cc(F)c(F)c(F)c2)c1=O [Compound I-0247] | – | 1000 to 10000 nM | 25 nM | 3540 nM
13 | Cc1cncc(-n2c(=O)nc(Nc3cc4cn(C)nc4cc3Cl)n(Cc3ccc(F)c(F)c3F)c2=O)c1 [II-0175] | < 100 nM | < 1000 nM | – | –
14 | Cc1cncc(-n2c(=O)nc(Nc3cc4sc(NCC(F)(F)F)nc4cc3F)n(Cc3ccc(F)c(C#N)c3)c2=O)c1 [II-0244] | < 100 nM | 1000 to 10000 nM | – | –
15 | O=c1[nH]cccc1Cn1c(=O)nc(Nc2cc3cn(CCCO)nc3cc2Cl)n(Cc2cc(F)c(F)c(F)c2)c1=O [Compound I-0450] | < 100 nM | 1000 to 10000 nM | – | –
16 | Cc1cncc(-n2c(=O)nc(Nc3cc4oc(C)nc4cc3Cl)n(Cc3ccc(F)c(C#N)c3)c2=O)c1 [II-0108] | < 100 nM | 1000 to 10000 nM | – | –
17 | Cc1cncc(-n2c(=O)nc(Nc3c(Cl)cc4nn(C)cc4c3F)n(Cc3ccc(F)c(C#N)c3)c2=O)c1 [II-0458] | < 100 nM | < 1000 nM | – | –
18 | O=c1[nH]cc(Cn2c(=O)nc(Nc3cc4c(cc3Cl)OCC4)n(Cc3cc(F)c(F)c(F)c3)c2=O)c(=O)[nH]1 [Compound I-0406] | < 100 nM | 1000 to 10000 nM | – | –
19 | COc1ccc(Nc2nc(=O)n(Cc3ccc[nH]c3=O)c(=O)n2Cc2cc(F)cc(Cl)c2)cc1 [Compound I-0316] | < 100 nM | 1000 to 10000 nM | – | –
20 | Cc1cncc(-n2c(=O)nc(N(C)C3CCCCC3)n(Cc3cc(F)c(F)c(F)c3)c2=O)c1 [II-0372] | – | – | 3400 nM | 6520 nM
21 | CNc1nc2cc(F)c(Nc3nc(=O)n(-c4cncc(C)c4)c(=O)n3Cc3cc(C#N)ccc3C)cc2s1 [II-0419] | < 100 nM | < 1000 nM | – | –
22 | CNc1nc2cc(Cl)c(Nc3nc(=O)n(-c4cncc(C)c4)c(=O)n3Cc3ccc(F)c(C#N)c3)cc2n1C [II-0414] | < 100 nM | 1000 to 10000 nM | – | –
23 | O=c1[nH]cccc1Cn1c(=O)nc(Nc2cc3cn(C(F)F)nc3cc2Cl)n(Cc2cc(F)c(F)c(F)c2)c1=O [Compound I-0357] | < 100 nM | 1000 to 10000 nM | – | –
24 | Cc1cncc(-n2c(=O)nc(Nc3cc4c(cc3Cl)nc(C(F)F)n4C)n(Cc3ccc(F)c(C#N)c3)c2=O)c1 [II-0106] | < 100 nM | 1000 to 10000 nM | – | –
25 | Cn1cc2cc(Nc3nc(=O)n(-c4cncc(N)c4)c(=O)n3Cc3cc(F)c(F)cc3F)c(Cl)cc2n1 [II-0386] | < 100 nM | 1000 to 10000 nM | – | –
26 | CNc1nc2cc(F)c(Nc3nc(=O)n(-c4cncc(C)c4)c(=O)n3Cc3cc(Cl)c(F)cc3F)cc2s1 [II-0385] | < 100 nM | < 1000 nM | – | –
27 | Cc1cncc(-n2c(=O)nc(Nc3cc4cn(C5CC5)nc4cc3Cl)n(Cc3ccc(F)c(C#N)c3)c2=O)c1 [II-0366] | < 100 nM | < 1000 nM | – | –
28 | COc1ccc(Nc2nc(=O)n(-c3cnc4sccn34)c(=O)n2Cc2cc(F)c(F)c(F)c2)cc1 [II-0393] | – | – | 3100 nM | 6080 nM
